Tests used:
sunburn = assay: Ultraviolet preventive effect, application test on beach in summer (Test Example 2); format: in vivo, human
Method: An application test was carried out on beach in summer. Equal volumes of samples were individually coated on back halves of subjects. After exposure to direct daylight, the degree of sunburn was assessed according to the following assessment standards. Each group consists of 10 subjects.
Prominently effective: none or almost no sunburn symptom was observed.
Effective: light sunburn symptom was observed.
Ineffective: strong sunburn symptom was observed.
⊚: prominently effective or effective for 80% or more of the subjects.
◯: prominently effective or effective for 50% or more to less than 80% of the subjects.
Δ: prominently effective or effective for 30% or more to less than 50% of the subjects.
x: prominently effective or effective for less than 30% of the subjects.
The aqueous phase and the alcohol phase were separately prepared and then mixed together.
Propylene glycol was added to and dissolved in ion exchange water. The resulting solution was retained at 70° C. under heating (aqueous phase). Other ingredients were mixed […]. The resulting mixture was melted under heating and retained at 70° C. (oil phase). The oil phase was added to the aqueous phase, for preliminary emulsification with a homomixer to homogeneity. Under thorough mixing, subsequently, the mixture was cooled to 30° C.

skin [1] = assay: Test of skin irritation: continuous application test (Test Example 3 i); format: in vivo, human; conditions: 10 wt % ultraviolet absorbent, twice daily for 4 weeks
Method: (§1) The same samples as in the Test Example 2 were used (at a 10 wt % amount of an ultraviolet absorbent).
Continuous application test was carried out for 20 healthy subjects per one group. An appropriate amount of each of the samples was coated twice daily for 4 weeks. The effects were assessed according to the following assessment standards.
Mean score was calculated for the determination of the effect on the basis of the following standards.
(§2) ◯: mean score of more than 0 to less than 1.
(§3) Δ: mean score of 1 or more to less than 2.
(§4) x: mean score of 2 or more.

skin [2] = assay: Test of skin irritation: 24-hour occlusion patch test (Test Example 3 ii); format: in vivo, human; conditions: 10 wt % ultraviolet absorbent
Method: as §1
20 Healthy male and female volunteers per one group were carried out in a 24-hour occlusion patch test, using a fin chamber on forearm curves. Assessment was done on the basis of the following assessment standards.
Mean score was determined for the assessment on the basis of the following standards.
as §2, §3, §4

[3] = Stability test in combination with inorganic powder-based ultraviolet shielding agent, sunscreen cream (Test Example 5); format: physicochemical; conditions: sunscreen cream with inorganic powders; ultraviolet absorbent 10.0 wt %; 50° C. for 2 months; visual observation
Method: A sunscreen cream of the following formulation was prepared and stored at 50° C. for 2 months. Under visual observation of the color change, the stability of the inventive pyridazine derivative in combination with inorganic powder-based ultraviolet screening agents commonly in blend as external preparations for skin for the purpose of ultraviolet prevention was examined.
After the ingredient 2 was added to the ingredient 1 to swell the ingredient 2, the ingredients 3 to 11 were mixed with the resulting mixture under heating, for sufficient dispersion and dissolution. While keeping the dispersion at 70° C., a solution of the mixture of the ingredients 12 to 15 was gradually added to the dispersion under thorough emulsification with a homomixer. The resulting mixture was cooled to 30° C. under sufficient stirring to prepare sunscreen creams.

[4] = Stabilization effect on perfume under daylight exposure (Test Examples 92 to 181); format: physicochemical; parameters: key: ◯: no change; Δ: almost no change; x: change; conditions: daylight exposure (80 MJ)
Method: Each test sample was prepared for observation of the change of the odor of the test sample (determined by perfume coordinator) before and after daylight exposure (80 MJ).

[5] = Drug stabilization effect under daylight exposure (Test Examples 182 to 211); format: physicochemical; parameters: key to Appearance (visual determination): ◯: no change; Δ: almost no change; x: change; conditions: photostabilizer 0.05 wt %, daylight exposure (80 MJ); for Remaining ratio (%): liquid chromatography
Method: (§5) For observation of the change of the appearance of each test sample (determination based on visual observation) and the measurement of the remaining ratio by liquid chromatography before and after daylight exposure (80 MJ), the test sample was prepared.

[6] = Dye stabilization effect in blend with sequestering agents (Test Examples 212 to 275); format: physicochemical; conditions: daylight exposure (80 MJ)
Method in brief: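 Colour difference (ΔE) measured by spectrophotometer in Lab coordinates before and after daylight exposure (80 MJ), relative to pre-exposure values (L1, a1, b1); appearance change also assessed visually.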

[7] = Drug stabilization effect blended with sequestering agent (Test Examples 372 to 391); format: physicochemical; parameters: key to Appearance (visual determination): ◯: no change; Δ: almost no change; x: change; conditions: drug Glycyrrhizinic acid dipotassium 0.05, photostabilizer blend amount 0.03, daylight exposure (80 MJ)
Method: Then, the photostabilization effect of the pyridazine derivative in combination with sequestering agents on each drug and the change of the appearance of each composition were examined, by using the following formulation for assessment.
as §5

[8] = drug Dipotassium glycyrrhizinate 0.05 wt %
[9] = drug dibutylhydroxytoluene 0.01 wt %
[10] = drug dl-α-tocopherol 2-L-ascorbic acid phosphate diester potassium salt 0.01 wt %

Color change [3]: no
Remaining ratio (%) [5, 8]: 98.9%
Remaining ratio (%) [5, 9]: 98.8%
Remaining ratio (%) [5, 10]: 98.0%
Δ E ([6]; dyes Red 227 (Acid Fuchsine D) 0.0001 + Yellow 203 (Quinoline Yellow WS) 0.0001, no sequestering agent, photostabilizer blend amount 0.01): 1.68
Δ E ([6]; dyes Red 227 (Acid Fuchsine D) 0.0001 + Yellow 203 (Quinoline Yellow WS) 0.0001, with sodium metaphosphate 0.02, photostabilizer blend amount 0.01): 0.98
Appearance (visual determination) ([7]; no sequestering agent): ◯
Appearance (visual determination) ([7]; with sodium metaphosphate 0.03): ◯
Compound: Oc1cc(N2CCOCC2)cnn1 [3-Hydroxy-5-morpholinopyridazine, 3-hydroxy-5-morpholinopyridazine]
Ultraviolet prevention effect (sunburn; cream, blend amount 0.0005 wt %): Δ (prominently effective or effective for 30% or more to less than 50% of the subjects)
Ultraviolet prevention effect (sunburn; cream, blend amount 0.001 wt %): ◯ (prominently effective or effective for 50% or more to less than 80% of the subjects)
Ultraviolet prevention effect (sunburn; cream, blend amount 0.01 wt %): ⊚ (prominently effective or effective for 80% or more of the subjects)
Ultraviolet prevention effect (sunburn; cream, blend amount 1 wt %): ⊚ (prominently effective or effective for 80% or more of the subjects)
Ultraviolet prevention effect (sunburn; cream, blend amount 5 wt %): ⊚ (prominently effective or effective for 80% or more of the subjects)
Ultraviolet prevention effect (sunburn; cream, blend amount 10 wt %): ⊚ (prominently effective or effective for 80% or more of the subjects)
Ultraviolet prevention effect (sunburn; cream, blend amount 20 wt %): ⊚ (prominently effective or effective for 80% or more of the subjects)
Ultraviolet prevention effect (sunburn; lotion, blend amount 0.0005 wt %): Δ (prominently effective or effective for 30% or more to less than 50% of the subjects)
Ultraviolet prevention effect (sunburn; lotion, blend amount 0.001 wt %): ◯ (prominently effective or effective for 50% or more to less than 80% of the subjects)
Ultraviolet prevention effect (sunburn; lotion, blend amount 0.01 wt %): ⊚ (prominently effective or effective for 80% or more of the subjects)
Ultraviolet prevention effect (sunburn; lotion, blend amount 1 wt %): ⊚ (prominently effective or effective for 80% or more of the subjects)
Ultraviolet prevention effect (sunburn; lotion, blend amount 5 wt %): ⊚ (prominently effective or effective for 80% or more of the subjects)
Ultraviolet prevention effect (sunburn; lotion, blend amount 10 wt %): ⊚ (prominently effective or effective for 80% or more of the subjects)
Ultraviolet prevention effect (sunburn; lotion, blend amount 20 wt %): ⊚ (prominently effective or effective for 80% or more of the subjects)
Determination (skin reaction, continuous application test) (skin [1]; cream): ⊚ (mean score of 0)
Determination (skin reaction, continuous application test) (skin [1]; lotion): ⊚ (mean score of 0)
Determination (skin reaction, patch test) (skin [2]; cream): ⊚ (mean score of 0)
Determination (skin reaction, patch test) (skin [2]; lotion): ⊚ (mean score of 0)
odor determination ([4]; base perfume Muge, photostabilizer 0.05 wt %): ◯
odor determination ([4]; base perfume Spicy, photostabilizer 0.2 wt %): ◯
odor determination ([4]; natural perfume Jasmine oil, photostabilizer 0.05 wt %): ◯
odor determination ([4]; natural perfume Lavender oil, photostabilizer 0.1 wt %): ◯
odor determination ([4]; natural perfume Ylang ylang oil, photostabilizer 0.2 wt %): ◯
odor determination ([4]; synthetic perfume Citral, photostabilizer 0.1 wt %): ◯
odor determination ([4]; synthetic perfume Linalool, photostabilizer 0.05 wt %): ◯
odor determination ([4]; synthetic perfume Linalyl acetate, photostabilizer 0.1 wt %): ◯
odor determination ([4]; synthetic perfume Rose oxide, photostabilizer 0.2 wt %): ◯
Appearance (visual determination) [5, 8]: ◯
Appearance (visual determination) [5, 9]: ◯
Appearance (visual determination) [5, 10]: ◯
Δ E ([6]; dye Yellow 5 (Sunset Yellow FCF) 0.0001, photostabilizer 0.01, no sequestering agent): 0.61
Δ E ([6]; dye Yellow 5 (Sunset Yellow FCF) 0.0001, photostabilizer 0.01, with ethylenediaminetetraacetate trisodium 0.03): 0.52
Δ E ([6]; dye Yellow 5 (Sunset Yellow FCF) 0.0001, photostabilizer 0.01, with sodium metaphosphate 0.03): 0.55
Δ E ([6]; dye Yellow 5 (Sunset Yellow FCF) 0.0001, photostabilizer 0.01, with sodium polyphosphate 0.03): 0.46

Reference: patent US6676932B2, “Ultraviolet absorbent, photostabilizer, ultraviolet ray-absorbing composition, photostabilized composition and external preparation for skin” (Shiseido Co., Ltd., priority 2001, dated 2004)
